{"source": "patent US7910621B2", "about": "“Small molecule antagonists of XIAP family proteins” (The Regents of the University of Michigan, priority 2004, dated 2011)", "key": {"[1]": {"test_system": "normal human prostate epithelial cells (PrEC)", "experiment": "WST-1 cell growth inhibition assay, PrEC", "assay_type": "cell-based", "settings": "120 h, WST-1, five days", "procedure": "(§1) FIG. 5 presents inhibition of cell growth by embelin in prostate cancer cells (PC-3 and LnCap) and its selectivity in normal human prostate epithelial cells (PrEC) and normal human fibroblast cell line, WI-38. 5000 cells per well in a 96-well cell culture plate were treated with various concentrations of embelin in triplicate. Five days later, the cell growth was measured by the WST-1 cell growth assay kit […] The cell growth results are expressed as the percent of control and calculated from the percent of absorbance of treated wells versus that of vehicle control.\n(§2) Human prostate cancer cell lines (PC-3, LNCap, CL-1, DU-145), and normal human fibroblast cell line WI-38 were obtained from the American Type Culture Collection (ATCC), were grown and maintained in Dulbecco's modified Eagle's medium (DMEM) containing 10% FBS (Invitrogen Corporation). Normal human prostate epithelial cells (PrEC) were obtained from Clonetics (Cambrex Inc., MD) and maintained in the special medium provided by the company. […]\n(§3) Cell growth was determined by the MTT-based assay using Cell Proliferation Reagent WST-1 (Roche) according to the manufacturer's instruction. […] Absorbance was measured with a plate reader at […] with correction at […]. The results are expressed as the percent of absorbance of treated wells versus that of vehicle control."}, "[2]": {"test_system": "normal human fibroblast cell line WI-38", "experiment": "WST-1 cell growth inhibition assay, WI-38", "assay_type": "cell-based", "settings": "120 h, WI-38, WST-1, five days", "procedure": "as §1, §2, §3"}}}
{"smiles": "CCCCCCCCCCCC1=C(O)C(=O)C=C(O)C1=O", "note": "[embelin]", "values": [{"measurement": "IC50", "setting": "[1]", "value": 20.1, "unit": "µM"}, {"measurement": "IC50", "setting": "[2]", "value": 19.3, "unit": "µM"}]}
